Assay [1] relates to RSV A2. Kind of assay: Virus titre in air-liquid interface (ALI) cultured bronchial epithelial cells (plaque assay). Type of assay: cell-based, respiratory syncytial virus. The protocol: Assessment of Virus Titre in Air-Liquid Interface (ALI) Cultured Bronchial Epithelial Cells
ALI cultured human bronchial epithelial cells were sourced from Epithelix Sàrl (Geneva, Switzerland) and maintained by changing the basal media every 3-4 days, whilst the apical surface was washed once weekly with PBS. On day 0, the apical surface of each well was washed once with sterile PBS (300 μL) and the inserts were transferred to new 24-well plates containing fresh MucilAir culture medium (780 μL; EP04MM). RSV A2 (50 μL; diluted in MucilAir culture medium to give a final MOI of 0.01) was added to cells for 1 hr (37° C./5% CO2). For the purposes of standardizing MOI calculations, each MucilAir insert was estimated to contain 2×10^5 apical facing cells per well. Virus inoculum was removed with a pipette and inserts were washed twice with sterile PBS (300 μL).
Sampling was conducted by adding sterile PBS (300 μL) to the apical surface of each well for 5 min. The apical sample was then removed and transferred to tubes containing 50% sucrose dissolved in PBS (100 μL) before being stored at −80° C. This harvesting procedure was repeated daily beginning on day 0 and concluding on day 7. […]
Virus titre was quantified by plaque assay. […] Plaques were counted by eye and confirmed using light microscopy, allowing the calculation of plaque forming units per mL.

In assay [2] the test system is RANTES gene transcript. Kind of assay: RSV infection in cotton rats: RANTES gene transcript in lung (qRT-PCR). Type of assay: in vivo, cotton rats (Sigmodon hispidus). Particulars: for RANTES gene transcript % inhibition / RANTES gene transcript (/β-actin), Median: cotton rats, lung, intranasal. The protocol: RSV Infection in Cotton Rats
Male Sigmodon hispidus cotton rats between 6 and 8 weeks of age were infected with hRSV/A/Long (ATCC, Manassas, Va.; 10^5 pfu) in a volume of 0.1 mL of sucrose stabilizing media. Compound (I) was dissolved in 100% DMSO (at 3.3, 10, 33 and 100 mg/mL), then diluted at 1:10 in isotonic saline to achieve 10% DMSO in all treatments. Formulations were then sonicated to produce suspensions. The resulting suspensions were administered intranasally (50 μL) by pipette 4 hr before infection (on day 0), and then on days 1, 2 and 3 post infection. Four days after RSV challenge, the animals were euthanised and the lungs were removed. The left lobe was used for viral titration via plaque assay and the lingular lobe for RSV/A/Long NS-1 qRT-PCR and cytokine qRT-PCR.
Total RNA was also extracted from homogenized lung tissue (RNeasy purification kit; Qiagen) and a sample (1 μg) was used to prepare cDNA using QuantiTect Reverse Transcription Kit (Qiagen). For real-time PCR reactions (RSV NS-1 and RANTES genes) the QuantiFast SYBR® Green PCR Kit (Qiagen) was used in a final volume of 25 μL, with final primer concentrations of 0.5 μM. Amplifications were performed on a Bio-Rad iCycler for 1 cycle of 95° C. for 3 min, followed by 40 cycles of 95° C. for 10 sec, 60° C. for 10 sec, and 72° C. for 15 sec. Baseline cycles and cycle threshold (Ct) were calculated by the iQ5 software in the PCR Base Line Subtracted Curve Fit mode. The standard curves were developed using serially diluted cDNA sample most enriched in the transcript of interest (e.g., lungs from day 4 post-primary RSV infection). The Ct values were plotted against login cDNA dilution factor. These curves were used to convert the Ct values obtained for different samples to relative expression units which were then normalized to the level of β-actin mRNA (“housekeeping gene”) expressed in the corresponding sample. The mRNA levels were expressed as the geometric mean±SEM for all animals in a group.

Here are results for one molecule from patent US10035810B2, “5,6-dihydro-4H-benzo[b]thieno-[2,3-d]azepine derivative” (PULMOCIDE LIMITED, priority 2014, dated 2018).

As for `Cc1cnc(N2CC3(CCOCC3)C2)c(C(=O)Nc2ccc(C(=O)N3CCc4cc(C(=O)Nc5c(C)cccc5F)sc4-c4ccccc43)cc2)c1` [Compound (I), N-(2-fluoro-6-methylphenyl)-6-(4-(5-methyl-2-(7-oxa-2-azaspiro[3.5]nonan-2-yl)nicotinamido)benzoyl)-5,6-dihydro-4H-benzo[b]thieno[2,3-d]azepine-2-carboxamide], the “Inhibition of RSV titre in ALI culture (in words)” value in assay [1] (early intervention, daily day 0 to day 7, 0.1 μg/mL, over 7 days) is reported as “complete inhibition”. Further, the “Virus titre in ALI culture (in words)” value in assay [1] (late intervention, administered from day 3, days 6 and 7 post infection) is “dramatic reduction of virus titre”. For the same molecule, the “RANTES gene transcript % inhibition” value was determined as 28% in assay [2] (0.33 mg/mL), 45% in assay [2] (1.0 mg/mL), 62% in assay [2] (3.3 mg/mL) and 55% in assay [2] (10 mg/mL). In addition, the “RANTES gene transcript (/β-actin), Median” value in assay [2] (0.33 mg/mL) is recorded as 0.21 /β-actin; in assay [2] (1.0 mg/mL) it was 0.16 /β-actin; in assay [2] (3.3 mg/mL), 0.11 /β-actin; in assay [2] (10 mg/mL) it was 0.13 /β-actin. In assay [2] (infected cotton rats), the “RANTES transcripts in lung (in words)” value was “dose-dependent inhibition”.
